Data taken from US10787450B2 (BRISTOL-MYERS SQUIBB COMPANY, priority 2016, dated 2020).

target: ROCK2 (Homo sapiens (Human), UniProt O75116); test: ROCK2 kinase inhibition assay (FITC peptide substrate, LABCHIP 3000 Reader); type: biochemical; conditions: 5 μM ATP, 1.5 μM peptide substrate
Procedure, shortened: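 Reaction in 20 mM HEPES pH 7.5, 20 mM MgCl2, 0.015% Brij-35, 4 mM DTT with 5 μM ATP and 1.5 μM FITC-AHA-AKRRRLSSLRA-OH peptide, started with Rho kinase, DMSO <2%. EDTA-stopped; phospho and non-phospho peptide separated by mobility shift. IC50 from dose-response curve fit.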

Sequence of ROCK2 (O75116 whole entry, species assumed): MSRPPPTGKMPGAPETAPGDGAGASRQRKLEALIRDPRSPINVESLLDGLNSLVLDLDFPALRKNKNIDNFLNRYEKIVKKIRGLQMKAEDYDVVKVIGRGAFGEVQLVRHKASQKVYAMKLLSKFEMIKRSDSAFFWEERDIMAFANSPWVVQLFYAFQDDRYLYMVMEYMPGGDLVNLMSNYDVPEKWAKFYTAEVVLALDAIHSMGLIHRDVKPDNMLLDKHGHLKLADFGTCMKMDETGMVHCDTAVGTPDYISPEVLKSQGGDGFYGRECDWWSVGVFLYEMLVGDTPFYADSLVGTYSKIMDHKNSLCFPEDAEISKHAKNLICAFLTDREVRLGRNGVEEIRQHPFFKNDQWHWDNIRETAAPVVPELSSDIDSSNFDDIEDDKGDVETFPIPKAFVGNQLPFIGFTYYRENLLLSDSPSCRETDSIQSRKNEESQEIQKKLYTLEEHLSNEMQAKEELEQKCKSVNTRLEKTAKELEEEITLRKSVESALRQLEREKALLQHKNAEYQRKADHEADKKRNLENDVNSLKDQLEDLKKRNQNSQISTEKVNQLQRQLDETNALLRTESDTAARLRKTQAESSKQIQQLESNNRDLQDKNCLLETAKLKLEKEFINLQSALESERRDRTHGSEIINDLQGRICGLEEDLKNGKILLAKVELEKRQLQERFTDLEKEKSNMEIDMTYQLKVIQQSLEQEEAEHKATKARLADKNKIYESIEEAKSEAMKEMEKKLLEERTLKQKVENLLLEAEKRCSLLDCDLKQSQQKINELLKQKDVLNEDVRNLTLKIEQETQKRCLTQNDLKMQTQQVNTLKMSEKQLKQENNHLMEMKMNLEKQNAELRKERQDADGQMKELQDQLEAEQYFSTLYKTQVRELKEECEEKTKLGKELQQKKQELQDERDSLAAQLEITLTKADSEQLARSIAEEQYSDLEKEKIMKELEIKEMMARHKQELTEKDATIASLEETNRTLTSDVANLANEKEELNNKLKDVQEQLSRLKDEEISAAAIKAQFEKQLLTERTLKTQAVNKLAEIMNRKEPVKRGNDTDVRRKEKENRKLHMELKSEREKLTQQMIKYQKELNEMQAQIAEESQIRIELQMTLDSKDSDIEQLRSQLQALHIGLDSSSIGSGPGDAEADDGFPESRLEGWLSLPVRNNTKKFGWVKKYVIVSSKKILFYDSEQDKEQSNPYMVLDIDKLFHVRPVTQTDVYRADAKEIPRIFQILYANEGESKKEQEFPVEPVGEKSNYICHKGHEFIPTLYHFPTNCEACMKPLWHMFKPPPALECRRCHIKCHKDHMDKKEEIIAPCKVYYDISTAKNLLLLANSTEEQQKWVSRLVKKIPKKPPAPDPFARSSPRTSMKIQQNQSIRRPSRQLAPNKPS

Q: `COc1cccc(CN2C(=O)N(c3ncc(-c4cn[nH]c4)c(OC)n3)CC23CCN(C(=O)[C@@H]2CC2(F)F)CC3)c1` [Example 213, (S)-8-(2,2-difluorocyclopropane-carbonyl)-3-(4-methoxy-5-(1H-pyrazol-4-yl)pyrimidin-2-yl)-1-(3-methoxybenzyl)-1,3,8-triazaspiro[4.5]decan-2-one] was tested. Which IC50 did it give?
A: 3 to 30 nM

Q: For `COc1cccc(CN2C(=O)N(c3ncc(-c4cn[nH]c4)c(OC)n3)CC23CCN(C(=O)CC(C)C)CC3)c1` [Example 214, 3-(4-methoxy-5-(1H-pyrazol-4-yl)pyrimidin-2-yl)-1-(3-methoxybenzyl)-8-(3-methylbutanoyl)-1,3,8-triazaspiro[4.5]decan-2-one], which IC50 is on record?
A: 3 to 30 nM

Q: With `COc1cccc(CN2C(=O)N(c3ncc(-c4cn[nH]c4)c(OC)n3)CC23CCN(C(=O)C(C)C)CC3)c1` [Example 215, 8-isobutyryl-3-(4-methoxy-5-(1H-pyrazol-4-yl)pyrimidin-2-yl)-1-(3-methoxybenzyl)-1,3,8-triazaspiro[4.5]decan-2-one] as the compound, how does the IC50 read?
A: 30 to 250 nM

Q: Which IC50 does the source give for `CCc1nc(N2CC3(CCN(C(=O)C4(O)CC4)CC3)N(Cc3cccc(OC)c3)C2=O)ccc1-c1cn[nH]c1` [Example 216, 3-(6-ethyl-5-(1H-pyrazol-4-yl)pyridin-2-y)-8-(1-hydroxycyclopropanecarbonyl)-1-(3-methoxybenzyl)-1,3,8-triazaspiro[4.5]decan-2-one] here?
A: 3 to 30 nM

Q: Which IC50 does the source give for `CCc1nc(N2CC3(CCN(C(=O)[C@H]4CC4(F)F)CC3)N(Cc3cccc(OC)c3)C2=O)ccc1-c1cn[nH]c1` [Example 217, (R)-8-(2,2-difluorocyclopropane-carbonyl)-3-(6-ethyl-5-(1H-pyrazol-4-yl)pyridin-2-yl)-1-(3-methoxybenzyl)-1,3,8-triazaspiro[4.5]decan-2-one] here?
A: < 3 nM

Q: For `COc1cccc(CN2C(=O)N(c3ccc(-c4cn[nH]c4)c(OC)n3)CC23CCN(C(=O)CN(C)C)CC3)c1` [Example 218, 8-(2-(dimethylamino)acetyl)-3-(6-methoxy-5-(1H-pyrazol-4-yl)pyridin-2-yl)-1-(3-methoxybenzyl)-1,3,8-triazaspiro[4.5]decan-2-one], which IC50 is on record?
A: < 3 nM

Q: With `COCC(=O)N1CCC2(CC1)CN(c1ccc(-c3cn[nH]c3)c(OC)n1)C(=O)N2Cc1cccc(OC)c1` [Example 219, 3-(6-methoxy-5-(1H-pyrazol-4-yl)pyridin-2-yl)-8-(2-methoxyacetyl)-1-(3-methoxybenzyl)-1,3,8-triazaspiro[4.5]decan-2-one] as the compound, how does the IC50 read?
A: < 3 nM

Q: With `COc1cccc(CN2C(=O)N(c3ccc(-c4cn[nH]c4)c(OC)n3)CC23CCN(C(=O)CO)CC3)c1` [Example 220, 8-(2-hydroxyacetyl)-3-(6-methoxy-5-(1H-pyrazol-4-yl)pyridin-2-yl)-1-(3-methoxybenzyl)-1,3,8-triazaspiro[4.5]decan-2-one] as the compound, how does the IC50 read?
A: < 3 nM

Q: With `COc1cccc(CN2C(=O)N(c3ccc(-c4cn[nH]c4)c(OC)n3)CC23CCN(C(=O)C(C)O)CC3)c1` (centres unmarked) [Example 221, 8-(2-hydroxypropanoyl)-3-(6-methoxy-5-(1H-pyrazol-4-yl)pyridin-2-yl)-1-(3-methoxybenzyl)-1,3,8-triazaspiro[4.5]decan-2-one] as the compound, how does the IC50 read?
A: < 3 nM

Q: `COc1cccc(CN2C(=O)N(c3ccc(-c4cn[nH]c4)c(OC)n3)CC23CCN(C(=O)C(C)(C)O)CC3)c1` [Example 222, 8-(2-hydroxy-2-methylpropanoyl)-3-(6-methoxy-5-(1H-pyrazol-4-yl)pyridin-2-yl)-1-(3-methoxybenzyl)-1,3,8-triazaspiro[4.5]decan-2-one] was tested. Which IC50 did it give?
A: < 3 nM

Q: How did the IC50 turn out when `COc1cccc(CN2C(=O)N(c3ccc(-c4cn[nH]c4)c(OC)n3)CC23CCN(C(=O)C2COC2)CC3)c1` [Example 223, 3-(6-methoxy-5-(1H-pyrazol-4-yl)pyridin-2-yl)-1-(3-methoxybenzyl)-8-(oxetane-3-carbonyl)-1,3,8-triazaspiro[4.5]decan-2-one] was run?
A: < 3 nM

Q: Which IC50 does the source give for `COc1nc(N2CC3(CCN(C(=O)CC(C)c4ccccc4)CC3)N(Cc3cccc(F)c3C)C2=O)ccc1-c1cn[nH]c1` (centres unmarked) [Example 224, 1-(3-fluoro-2-methylbenzyl)-3-(6-methoxy-5-(1H-pyrazol-4-yl)pyridin-2-yl)-8-(3-phenylbutanoyl)-1,3,8-triazaspiro[4.5]decan-2-one] here?
A: 3 to 30 nM

Q: `COc1nc(N2CC3(CCN(C(=O)CN(C)C)CC3)N(Cc3cccc(F)c3C)C2=O)ccc1-c1cn[nH]c1` [Example 225, 8-(2-(dimethylamino)acetyl)-1-(3-fluoro-2-methylbenzyl)-3-(6-methoxy-5-(1H-pyrazol-4-yl)pyridin-2-yl)-1,3,8-triazaspiro[4.5]decan-2-one] was tested. Which IC50 did it give?
A: < 3 nM

Q: `COCC(=O)N1CCC2(CC1)CN(c1ccc(-c3cn[nH]c3)c(OC)n1)C(=O)N2Cc1cccc(F)c1C` [Example 226, 1-(3-fluoro-2-methylbenzyl)-3-(6-methoxy-5-(1H-pyrazol-4-yl)pyridin-2-yl)-8-(2-methoxyacetyl)-1,3,8-triazaspiro[4.5]decan-2-one] was tested. Which IC50 did it give?
A: < 3 nM

Q: For `COc1nc(N2CC3(CCN(C(=O)CCN4CCCC4=O)CC3)N(Cc3cccc(F)c3C)C2=O)ccc1-c1cn[nH]c1` [Example 227, 1-(3-fluoro-2-methylbenzyl)-3-(6-methoxy-5-(1H-pyrazol-4-yl)pyridin-2-yl)-8-(3-(2-oxopyrrolidin-1-yl)propanoyl)-1,3,8-triazaspiro[4.5]decan-2-one], which IC50 is on record?
A: < 3 nM

Q: For `COc1nc(N2CC3(CCN(C(=O)C(C)(C)CO)CC3)N(Cc3cccc(F)c3C)C2=O)ccc1-c1cn[nH]c1` [Example 228, 1-(3-fluoro-2-methylbenzyl)-8-(3-hydroxy-2,2-dimethylpropanoyl)-3-(6-methoxy-5-(1H-pyrazol-4-yl)pyridin-2-yl)-1,3,8-triazaspiro[4.5]decan-2-one], which IC50 is on record?
A: < 3 nM

Q: Which IC50 does the source give for `COc1nc(N2CC3(CCN(C(=O)CO)CC3)N(Cc3cccc(F)c3C)C2=O)ccc1-c1cn[nH]c1` [Example 229, 1-(3-fluoro-2-methylbenzyl)-8-(2-hydroxyacetyl)-3-(6-methoxy-5-(1H-pyrazol-4-yl)pyridin-2-yl)-1,3,8-triazaspiro[4.5]decan-2-one] here?
A: < 3 nM

Q: Which IC50 does the source give for `COc1nc(N2CC3(CCN(C(=O)C(C)(C)O)CC3)N(Cc3cccc(F)c3C)C2=O)ccc1-c1cn[nH]c1` [Example 230, 1-(3-fluoro-2-methylbenzyl)-8-(2-hydroxy-2-methylpropanoyl)-3-(6-methoxy-5-(1H-pyrazol-4-yl)pyridin-2-yl)-1,3,8-triazaspiro[4.5]decan-2-one] here?
A: < 3 nM

Q: For `COc1cccc(CN2C(=O)N(c3ccc(-c4cn[nH]c4)cc3)CC23CCN(CC2CCC(F)(F)CC2)CC3)c1` [Example 231, 3-(4-(1H-pyrazol-4-yl)phenyl)-8-((4,4-difluorocyclohexyl)methyl)-1-(3-methoxybenzyl)-1,3,8-triazaspiro[4.5]decan-2-one], which IC50 is on record?
A: < 3 nM

Q: For `COc1cccc(CN2C(=O)N(c3ccc(-c4cn[nH]c4)cc3)CC23CCN(CC2CCC2)CC3)c1` [Example 232, 3-(4-(1H-pyrazol-4-yl)phenyl)-8-(cyclobutyl-methyl)-1-(3-methoxy-benzyl)-1,3,8-triazaspiro [4.5]decan-2-one], which IC50 is on record?
A: < 3 nM

Q: For `COc1cccc(CN2C(=O)N(c3ccc(-c4cn[nH]c4)cc3)CC23CCN(CC2CCOCC2)CC3)c1` [Example 233, 3-(4-(1H-pyrazol-4-yl)phenyl)-1-(3-methoxy-benzyl)-8-((tetrahydro-2H-pyran-4-yl)methyl)-1,3,8-triazaspiro [4.5]decan-2-one], which IC50 is on record?
A: < 3 nM

Q: With `COc1cccc(CN2C(=O)N(c3ccc(-c4cn[nH]c4)cc3)CC23CCN(S(C)(=O)=O)CC3)c1` [Example 234, 3-(4-(1H-pyrazol-4-yl)phenyl)-1-(3-methoxybenzyl)-8-(methylsulfonyl)-1,3,8-triazaspiro[4.5]decan-2-one] as the compound, how does the IC50 read?
A: < 3 nM

Q: With `COc1cccc(CN2C(=O)N(c3ccc(-c4cn[nH]c4)cc3)CC23CCN(C2COC2)CC3)c1` [Example 235, 3-(4-(1H-pyrazol-4-yl)phenyl)-1-(3-methoxybenzyl)-8-(oxetan-3-yl)-1,3,8-triazaspiro[4.5]decan-2-one] as the compound, how does the IC50 read?
A: < 3 nM

Q: For `COc1cc(F)cc(CN2C(=O)N(c3ccc(-c4cn[nH]c4)cc3)CC23CCN(C2COC2)CC3)c1` [Example 236, 3-(4-(1H-pyrazol-4-yl)phenyl)-1-(3-fluoro-5-methoxy-benzyl)-8-(oxetan-3-yl)-1,3,8-triazaspiro [4.5]decan-2-one], which IC50 is on record?
A: < 3 nM

Q: How did the IC50 turn out when `COc1cccc(CN2C(=O)N(c3ccc(-c4cn[nH]c4)cn3)CC23CCN(C2COC2)CC3)c1` [Example 237, 3-(5-(1H-pyrazol-4-yl)pyridin-2-yl)-1-(3-methoxy-benzyl)-8-(oxetan-3-yl)-1,3,8-triazaspiro [4.5]decan-2-one] was run?
A: < 3 nM

Q: Which IC50 does the source give for `COc1cccc(CN2C(=O)N(c3ccc(-c4cn[nH]c4)c(OC)n3)CC23CCN(C2COC2)CC3)c1` [Example 238, 3-(6-methoxy-5-(1H-pyrazol-4-yl)pyridin-2-yl)-1-(3-methoxy-benzyl)-8-(oxetan-3-yl)-1,3,8-triazaspiro [4.5]decan-2-one] here?
A: < 3 nM

Q: Which IC50 does the source give for `COc1nc(N2CC3(CCN(C4COC4)CC3)N(Cc3cccc(F)c3C)C2=O)ccc1-c1cn[nH]c1` [Example 239, 1-(3-fluoro-2-methyl-benzyl)-3-(6-methoxy-5-(1H-pyrazol-4-yl)pyridin-2-yl)-8-(oxetan-3-yl)-1,3,8-triazaspiro [4.5]decan-2-one] here?
A: < 3 nM

Q: `COc1cccc(NC2C(=O)N(c3ccc(-c4cn[nH]c4)cc3)CC23CN(C(=O)OC(C)(C)C)C3)c1` (centres unmarked) [Example 240, tert-butyl 6-(4-(1H-pyrazol-4-yl)phenyl)-8-((3-methoxyphenyl)amino)-7-oxo-2,6-diazaspiro[3.4]octane-2-carboxylate] was tested. Which IC50 did it give?
A: 30 to 250 nM

Q: For `COc1cccc(NC2C(=O)N(c3ncc(-c4cn[nH]c4)c(OC)n3)CC23CCN(C(=O)OC(C)(C)C)CC3)c1` (centres unmarked) [Example 241, tert-butyl 2-(4-methoxy-5-(1H-pyrazol-4-yl)pyrimidin-2-yl)-4-((3-methoxyphenyl)amino)-3-oxo-2,8-diazaspiro[4.5]decane-8-carboxylate], which IC50 is on record?
A: 250 to 3000 nM
